What was measured:
barnyardgrass [1] = test: Test A pre-/postemergence herbicide test; type: in vivo, Echinochloa crus-galli
Summary of the method: (§1)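 Pre: seeded sandy loam, directed soil spray, compound in non-phytotoxic solvent + surfactant. Post: 1–2-leaf plants (2–10 cm), sprayed to runoff. Greenhouse ~10 d; visual injury vs untreated, 0–100 scale.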

large crabgrass [2] = test: Test A pre-/postemergence herbicide test; type: in vivo, Digitaria sanguinalis
Summary of the method: as §1

giant foxtail [3] = test: Test A pre-/postemergence herbicide test; type: in vivo, Setaria faberi
Summary of the method: as §1

morningglory [4] = test: Test A pre-/postemergence herbicide test; type: in vivo, Ipomoea spp.
Summary of the method: as §1

redroot pigweed = test: Test A pre-/postemergence herbicide test; type: in vivo, Amaranthus retroflexus
Summary of the method: as §1

velvetleaf [5] = test: Test A pre-/postemergence herbicide test; type: in vivo, Abutilon theophrasti
Summary of the method: as §1

barnyardgrass [6] = test: Test B pre-/postemergence herbicide test; type: in vivo, Echinochloa crus-galli; conditions: for Barnyardgrass plant response rating: postemergence, visual rating, scale 0 (no effect) to 100 (complete control)
Summary of the method: (§2)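 Test chemicals in a non-phytotoxic solvent mixture with surfactant were applied preemergence to seeded species and postemergence to plants 2-18 cm tall (1- to 4-leaf stage); rice and barnyardgrass were also tested in a flooded paddy at the 2-leaf stage. Visual rating versus controls after 13-15 days in greenhouse, scale 0 (no effect) to 100 (complete control).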

Surinam grass = test: Test B pre-/postemergence herbicide test; type: in vivo, Urochloa decumbens; conditions: for Surinam Grass plant response rating: postemergence, visual rating, scale 0 (no effect) to 100 (complete control)
Summary of the method: (§3)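 Herbicidal effect was judged by eye on a 0–100 scale after plants stood 13 to 15 days in the greenhouse following pre- or postemergence treatment with surfactant-containing formulations.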

cocklebur = test: Test B pre-/postemergence herbicide test; type: in vivo, Xanthium strumarium; conditions: for Cocklebur plant response rating: postemergence, visual rating, scale 0 (no effect) to 100 (complete control)
Summary of the method: as §2

corn = test: Test B pre-/postemergence herbicide test; type: in vivo, Zea mays; conditions: for Corn plant response rating: postemergence, visual rating, scale 0 (no effect) to 100 (complete control)
Summary of the method: as §3

large crabgrass [7] = test: Test B pre-/postemergence herbicide test; type: in vivo, Digitaria sanguinalis; conditions: for Crabgrass, Large plant response rating: postemergence, visual rating, scale 0 (no effect) to 100 (complete control)
Summary of the method: as §3

giant foxtail [8] = test: Test B pre-/postemergence herbicide test; type: in vivo, Setaria faberi; conditions: for Foxtail, Giant plant response rating: postemergence, visual rating, scale 0 (no effect) to 100 (complete control)
Summary of the method: as §3

lambsquarters = test: Test B pre-/postemergence herbicide test; type: in vivo, Chenopodium album; conditions: for Lambsquarters plant response rating: postemergence, visual rating, scale 0 (no effect) to 100 (complete control)
Summary of the method: as §3

morningglory [9] = test: Test B pre-/postemergence herbicide test; type: in vivo, Ipomoea coccinea; conditions: for Morningglory plant response rating: postemergence, visual rating, scale 0 (no effect) to 100 (complete control)
Summary of the method: as §2

pigweed = test: Test B pre-/postemergence herbicide test; type: in vivo, Amaranthus retroflexus; conditions: for Pigweed plant response rating: postemergence, visual rating, scale 0 (no effect) to 100 (complete control)
Summary of the method: as §3

rice [10] = test: Test B pre-/postemergence herbicide test; type: in vivo, Oryza sativa; conditions: preemergence
Summary of the method: as §3

velvetleaf [11] = test: Test B pre-/postemergence herbicide test; type: in vivo, Abutilon theophrasti; conditions: for Velvetleaf plant response rating: postemergence, visual rating, scale 0 (no effect) to 100 (complete control)
Summary of the method: as §3

blackgrass = test: Test B postemergence herbicide test; type: in vivo, Alopecurus myosuroides; conditions: postemergence, visual rating, scale 0 (no effect) to 100 (complete control)
Summary of the method: (§4)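 Paddy species grown to the 2-leaf stage under flooding; blackgrass sprayed postemergence at 2–18 cm (1- to 4-leaf stage). Plants kept in a greenhouse for 13 to 15 days, then visually rated against controls on 0 (no effect) to 100 (complete control).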

wheat = test: Test B postemergence herbicide test; type: in vivo, Triticum aestivum; design: key to Wheat plant response rating: 0 = no effect, 100 = complete control; conditions: postemergence, visual rating, scale 0 (no effect) to 100 (complete control)
Summary of the method: (§5)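 Greenhouse test; postemergence application to plants at 1–4 leaves (2–18 cm); paddy species at 2 leaves; evaluated visually vs controls at 13–15 days; scale 0–100 (100 = complete control).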

wild oat = test: Test B postemergence herbicide test; type: in vivo, Avena fatua; conditions: postemergence, visual rating, scale 0 (no effect) to 100 (complete control)
Summary of the method: as §5

rice [12] = test: Test B flooded paddy test; type: in vivo, Oryza sativa; conditions: 1000 g ai/ha, visual rating, scale 0 to 100 (0 no effect, 100 complete control), 13 to 15 days
Summary of the method: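 Treated at 2-leaf (paddy) or 1–4-leaf, 2–18 cm (postemergence); greenhouse 13–15 d; visual score vs control, 0 none to 100 complete control; dash = not tested.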

[13] = test system: small flower umbrella sedge; test: Test B flooded paddy test; type: in vivo, Cyperus difformis; conditions: 1000 g ai/ha, visual rating, scale 0 to 100 (0 no effect, 100 complete control), 13 to 15 days
Summary of the method: as §4

ducksalad = test: Test B flooded paddy test; type: in vivo, Heteranthera limosa; conditions: 1000 g ai/ha, visual rating, scale 0 to 100 (0 no effect, 100 complete control), 13 to 15 days
Summary of the method: as §4

barnyardgrass [14] = test: Test B flooded paddy test; type: in vivo, Echinochloa crus-galli; conditions: 1000 g ai/ha, visual rating, scale 0 to 100 (0 no effect, 100 complete control), 13 to 15 days
Summary of the method: as §4

[15] = Postemergence, 500 g ai/ha, 0 to 100 scale, 0 no effect, 100 complete control
[16] = Postemergence, 2000 g ai/ha, 0 to 100 scale, 0 no effect, 100 complete control
[17] = Preemergence, 2000 g ai/ha, visual rating, 0 to 100 scale (0 no effect, 100 complete control)
[18] = preemergence, 500 g ai/ha, visual injury, 0 to 100 scale (0 no effect, 100 complete control)
[19] = 125 g ai/ha, 0 = no effect, 100 = complete control, preemergence
[20] = 500 g ai/ha, visual rating 0-100, 0 no effect, 100 complete control, preemergence

Cc1nn(C(C)(C)C)cc1C(=O)Nc1cccc(OC(C)C)c1 [Compound 189]
Barnyardgrass plant response rating (barnyardgrass [1]; [15]): 0 | Plant response rating, Barnyardgrass (barnyardgrass [1]; [16]): 10 | Barnyardgrass plant response rating (barnyardgrass [1]; [17]): 65 | Barnyardgrass plant response rating (barnyardgrass [1]; [18]): 35 | Crabgrass, Large plant response rating (large crabgrass [2]; [15]): 10 | Plant response rating, Crabgrass, Large (large crabgrass [2]; [16]): 10 | Crabgrass, Large plant response rating (large crabgrass [2]; [17]): 75 | Crabgrass, Large plant response rating (large crabgrass [2]; [18]): 55 | Foxtail, Giant plant response rating (giant foxtail [3]; [15]): 0 | Plant response rating, Foxtail, Giant (giant foxtail [3]; [16]): 0 | Foxtail, Giant plant response rating (giant foxtail [3]; [17]): 20 | Foxtail, Giant plant response rating (giant foxtail [3]; [18]): 5 | Morningglory plant response rating (morningglory [4]; [15]): 10 | Plant response rating, Morningglory (morningglory [4]; [16]): 10 | Morningglory plant response rating (morningglory [4]; [17]): 30 | Morningglory plant response rating (morningglory [4]; [18]): 15 | Pigweed plant response rating (redroot pigweed; [15]): 30 | Plant response rating, Pigweed (redroot pigweed; [16]): 45 | Pigweed plant response rating (redroot pigweed; [17]): 40 | Pigweed plant response rating (redroot pigweed; [18]): 25 | Velvetleaf plant response rating (velvetleaf [5]; [15]): 5 | Plant response rating, Velvetleaf (velvetleaf [5]; [16]): 5 | Velvetleaf plant response rating (velvetleaf [5]; [17]): 25 | Velvetleaf plant response rating (velvetleaf [5]; [18]): 10 | Barnyardgrass plant response rating (0 to 100 scale) (barnyardgrass [6]; [19]): 0 | Plant response rating, Barnyardgrass (barnyardgrass [6]; [20]): 30 | Barnyardgrass plant response rating (barnyardgrass [6]; 125 g ai/ha): 0 | Barnyardgrass plant response rating (barnyardgrass [6]; 500 g ai/ha): 10 | Surinam Grass plant response rating (0 to 100 scale) (Surinam grass; [19]): 0 | Plant response rating, Surinam Grass (Surinam grass; [20]): 20 | Surinam Grass plant response rating (Surinam grass; 125 g ai/ha): 10 | Surinam Grass plant response rating (Surinam grass; 500 g ai/ha): 20 | Cocklebur plant response rating (0 to 100 scale) (cocklebur; [19]): 0 | Plant response rating, Cocklebur (cocklebur; [20]): 0 | Cocklebur plant response rating (cocklebur; 125 g ai/ha): 0 | Cocklebur plant response rating (cocklebur; 500 g ai/ha): 10 | Corn plant response rating (0 to 100 scale) (corn; [19]): 0 | Plant response rating, Corn (corn; [20]): 0 | Corn plant response rating (corn; 125 g ai/ha): 10 | Corn plant response rating (corn; 500 g ai/ha): 10 | Crabgrass, Large plant response rating (0 to 100 scale) (large crabgrass [7]; [19]): 30 | Plant response rating, Crabgrass, Large (large crabgrass [7]; [20]): 60 | Crabgrass, Large plant response rating (large crabgrass [7]; 125 g ai/ha): 10 | Crabgrass, Large plant response rating (large crabgrass [7]; 500 g ai/ha): 20 | Foxtail, Giant plant response rating (0 to 100 scale) (giant foxtail [8]; [19]): 0 | Plant response rating, Foxtail, Giant (giant foxtail [8]; [20]): 10 | Foxtail, Giant plant response rating (giant foxtail [8]; 125 g ai/ha): 0 | Foxtail, Giant plant response rating (giant foxtail [8]; 500 g ai/ha): 10 | Lambsquarters plant response rating (0 to 100 scale) (lambsquarters; [19]): 0 | Plant response rating, Lambsquarters (lambsquarters; [20]): 30 | Lambsquarters plant response rating (lambsquarters; 125 g ai/ha): 50 | Lambsquarters plant response rating (lambsquarters; 500 g ai/ha): 50 | Plant response rating, Morningglory (morningglory [9]; [20]): 20 | Morningglory plant response rating (morningglory [9]; 125 g ai/ha): 80 | Morningglory plant response rating (morningglory [9]; 500 g ai/ha): 90 | Pigweed plant response rating (0 to 100 scale) (pigweed; [19]): 90 | Plant response rating, Pigweed (pigweed; [20]): 100 | Pigweed plant response rating (pigweed; 125 g ai/ha): 30 | Pigweed plant response rating (pigweed; 500 g ai/ha): 60 | Rice plant response rating (0 to 100 scale) (rice [10]; 125 g ai/ha, 0 = no effect, 100 = complete control): 0 | Plant response rating, Rice (rice [10]; 500 g ai/ha, visual rating 0-100, 0 no effect, 100 complete control): 50 | Velvetleaf plant response rating (0 to 100 scale) (velvetleaf [11]; [19]): 0 | Plant response rating, Velvetleaf (velvetleaf [11]; [20]): 20 | Velvetleaf plant response rating (velvetleaf [11]; 125 g ai/ha): 20 | Velvetleaf plant response rating (velvetleaf [11]; 500 g ai/ha): 20 | Blackgrass plant response rating (blackgrass; 125 g ai/ha): 0 | Blackgrass plant response rating (blackgrass; 500 g ai/ha): 0 | Wheat plant response rating (wheat; 125 g ai/ha): 0 | Wheat plant response rating (wheat; 500 g ai/ha): 0 | Oat, Wild plant response rating (wild oat; 125 g ai/ha): 10 | Oat, Wild plant response rating (wild oat; 500 g ai/ha): 10 | Rice plant response rating (rice [12]): 40 | Sedge, Umbrella plant response rating [13]: 70 | Ducksalad plant response rating (ducksalad): 70 | Barnyardgrass plant response rating (barnyardgrass [14]): 60
